Experimental data as given in patent publication US8461336B2, “Boron-containing small molecules” (Anacor Pharmaceuticals, Inc., priority 2008, dated 2013).
Counter-ions that a name gives are not always drawn.

Test system: TNF-α
Assay: Cytokine assay, LPS-induced TNF-α in human PBMC
Format: cell-based
Conditions: 1 μg/mL LPS, supernatant at 24 hours
Experimental: The ability of the compounds described herein to inhibit pro-inflammatory cytokines or phosphodiesterases were tested.
Frozen human peripheral blood mononucleocytes (PBMC) were thawed and centrifuged. Cryopreservation media was aspirated off of the cell pellet, and the cells were resuspended in fresh culture media (CM) comprising RPMI 1640 and 10% FBS in 96 well plates. Test article was dissolved in DMSO to form a 10 mM sample (DMSO, 100%). The 10 mM samples were diluted to 100 μM in CM (DMSO, 1%), then further diluted to 10, 1, 0.1, 0.01 μM in 200 μL of CM (n=3). […] IL-23 was assayed using a commercial ELISA kit (R&D Systems).
NCc1ccc(Oc2ccc3c(c2)B(O)OC3)c(F)c1 [W] showed an IC50 of 0.019 µM.

Target: T1, ROCK1 (Homo sapiens, UniProt Q13464)
T1 construct: Catalytic Domain (amino acids 1-535); GST; purchased Reaction Biology Corp., Malvern, Pa; host or cells: insect cells
T1 sequence (Q13464 1-535): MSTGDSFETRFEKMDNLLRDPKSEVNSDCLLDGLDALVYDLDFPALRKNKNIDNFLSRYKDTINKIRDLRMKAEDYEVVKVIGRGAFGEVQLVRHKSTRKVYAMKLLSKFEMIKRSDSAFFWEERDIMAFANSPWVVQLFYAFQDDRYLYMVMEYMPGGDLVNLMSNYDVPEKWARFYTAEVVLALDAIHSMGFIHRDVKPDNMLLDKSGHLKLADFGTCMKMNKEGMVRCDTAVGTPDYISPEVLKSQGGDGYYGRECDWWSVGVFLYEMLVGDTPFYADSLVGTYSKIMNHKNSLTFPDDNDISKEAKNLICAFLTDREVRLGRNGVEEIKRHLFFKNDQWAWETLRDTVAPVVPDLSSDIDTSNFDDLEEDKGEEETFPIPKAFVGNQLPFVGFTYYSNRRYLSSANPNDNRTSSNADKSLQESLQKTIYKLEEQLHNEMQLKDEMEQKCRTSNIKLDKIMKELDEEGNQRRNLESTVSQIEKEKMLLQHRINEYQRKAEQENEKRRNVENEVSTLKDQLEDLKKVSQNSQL
Assay: Kinase assay ROCK1 ([gamma-33P]ATP, S6 kinase peptide substrate)
Format: biochemical
Conditions: 20 nM recombinant human ROCK1 catalytic domain, room temperature
Experimental: (§1) The kinase assays were performed at room temperature using 20 nM ROCK1 or ROCK2 enzyme and 20 uM peptide substrate, [gamma-^33P]ATP, and drug concentration were varied. The ROCK1 enzyme is recombinant human protein, Catalytic Domain (amino acids 1-535) (Reaction Biology Corp., Malvern, Pa.), GST-tagged, expressed in insect cells. MW=[…]. The ROCK2 enzyme is recombinant human protein (amino acids 11-552), N-terminal histidine-tagged, expressed in insect cells, MW=63.3 kDa (Reaction Biology Corp., Malvern, Pa.). The substrate was a peptide derived from S6 kinase peptide for both ROCK1 & 2 assays; [[…]], Mw=3630 Da (Reaction Biology Corp., Malvern, Pa.). The reaction buffer contained 20 mM HEPES-HCl, pH 7.5, 10 mM MgCl2, 1 mM EGTA, 0.02% Brij35, 0.1 mM Na3VO4, 0.02 mg/ml BSA, 2 mM DTT, and 1% DMSO. Enzyme/substrate/drug mixture were added and incubated for 20 min to ensure compound was equilibrated and bound to the enzyme. Then concentrations of ATP were added to initiate the reaction. The activity was monitored by filter plate capture of the radioactive peptide using ion exchange filtration (P81, Whatmann) and washed extensively. The reactions were monitored every 5-15 min to obtain progress curve with time course. At each time point, radioisotope signal (“P) was converted into “uM phosphate transferred to substrate”, and was plotted against time. The initial linear slope of progress curve was obtained by linear regression. The slopes (or velocity; uM/min) were then plotted against ATP concentrations for Michaelis-Menten plot, and subsequent Lineweaver-Burk plot (double-reciprocal plot) and secondary plot, using GraphPad Prism software.
With NCc1ccc(Oc2ccc3c(c2)B(O)OC3)cc1 [T, (4-(1-hydroxy-1,3-dihydrobenzo[c][1,2]oxaborol-6-yloxy)phenyl)methanaminium chloride] the IC50 was 8.1 µM. NCc1cccc(Oc2ccc3c(c2)B(O)OC3)c1 [U, (3-(1-hydroxy-1,3-dihydrobenzo[c][1,2]oxaborol-6-yloxy)phenyl)methanaminium chloride] showed an IC50 of 69.5 µM. NCc1ccc(Oc2ccc3c(c2)COB3O)cc1 [V, (4-(1-hydroxy-1,3-dihydrobenzo[c][1,2]oxaborol-5-yloxy)phenyl)methanaminium chloride] gave an IC50 of 25.1 µM. Work on NCc1ccc(Oc2ccc3c(c2)B(O)OC3)c(F)c1 [W] yielded an IC50 of 2.44 µM. For NCc1ccc(Oc2ccc3c(c2)B(O)OC3)c(Cl)c1 [X], the IC50 was 4.75 µM. Work on N#Cc1ccc(Oc2ccc3c(c2)COB3O)nc1OC1CCCC1 [Z, 2-Cyclopentyloxy-6-(1-hydroxy-1,3-dihydro-benzo[c][1,2]oxaborol-5-yloxy)-nicotinonitrile] yielded an IC50 of 18.1 µM.

Target: T2, ROCK2 (Homo sapiens, UniProt O75116)
T2 construct: recombinant human protein (amino acids 11-552); His (N); purchased Reaction Biology Corp., Malvern, Pa; host or cells: insect cells
T2 sequence (O75116 11-552): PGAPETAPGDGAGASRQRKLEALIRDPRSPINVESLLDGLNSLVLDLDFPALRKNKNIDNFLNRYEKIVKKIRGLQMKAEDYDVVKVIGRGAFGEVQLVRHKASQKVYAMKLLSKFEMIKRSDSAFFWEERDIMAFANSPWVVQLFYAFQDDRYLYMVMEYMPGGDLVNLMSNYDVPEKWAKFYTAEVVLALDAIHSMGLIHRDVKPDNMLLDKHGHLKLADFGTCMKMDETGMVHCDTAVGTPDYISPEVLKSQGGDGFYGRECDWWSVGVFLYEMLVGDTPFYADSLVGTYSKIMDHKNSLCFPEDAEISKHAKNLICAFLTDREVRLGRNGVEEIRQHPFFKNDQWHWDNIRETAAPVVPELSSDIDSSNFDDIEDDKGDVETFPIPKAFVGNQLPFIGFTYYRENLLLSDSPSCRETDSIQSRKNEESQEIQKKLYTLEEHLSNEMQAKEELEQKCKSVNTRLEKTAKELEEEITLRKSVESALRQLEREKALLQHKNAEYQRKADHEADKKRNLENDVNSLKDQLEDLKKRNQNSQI
Assay: Kinase assay ROCK2 ([gamma-33P]ATP, S6 kinase peptide substrate)
Format: biochemical
Conditions: 20 nM recombinant human ROCK2, room temperature
Experimental: as §1
In the case of NCc1ccc(Oc2ccc3c(c2)B(O)OC3)cc1 [T, (4-(1-hydroxy-1,3-dihydrobenzo[c][1,2]oxaborol-6-yloxy)phenyl)methanaminium chloride], the IC50 is reported as 3.1 µM. For NCc1cccc(Oc2ccc3c(c2)B(O)OC3)c1 [U, (3-(1-hydroxy-1,3-dihydrobenzo[c][1,2]oxaborol-6-yloxy)phenyl)methanaminium chloride], the IC50 was 40.2 µM. With NCc1ccc(Oc2ccc3c(c2)COB3O)cc1 [V, (4-(1-hydroxy-1,3-dihydrobenzo[c][1,2]oxaborol-5-yloxy)phenyl)methanaminium chloride] the IC50 was 10.1 µM. NCc1ccc(Oc2ccc3c(c2)B(O)OC3)c(F)c1 [W] showed an IC50 of 0.86 µM. Compound NCc1ccc(Oc2ccc3c(c2)B(O)OC3)c(Cl)c1 [X] has an IC50 of 2.11 µM. Compound N#Cc1ccc(Oc2ccc3c(c2)COB3O)nc1OC1CCCC1 [Z, 2-Cyclopentyloxy-6-(1-hydroxy-1,3-dihydro-benzo[c][1,2]oxaborol-5-yloxy)-nicotinonitrile] has an IC50 of 9.09 µM.

Test system: not given
Assay: not given
Conditions: not given
In the case of NCc1ccc(Oc2ccc3c(c2)B(O)OC3)cc1 (as salt: chloride) [(4-(1-hydroxy-1,3-dihydrobenzo[c][1,2]oxaborol-6-yloxy)phenyl)methanaminium chloride], the melting point is reported as > 230 °C.

Target: K-ATP channel
Assay: not given
Conditions: example given in the text for K-ATP channel modulation; cited from earlier work
For CC1=NS(=O)(=O)c2cc(Cl)ccc2N1 [diazoxide], the pKi is given as 3.8.
